Measurements: patent US20240093168A1, “TRANS[…] IN CELLS OF ORGANISM INCLUDING HUMAN, T[…], AND TOOL FOR PURIFYING COMPLEX THEREOF” (KAWASAKI GAKUEN EDUCATIONAL FOUNDATION, priority 2021, published 2024)

Target: T1, HMG-CoA (Homo sapiens, UniProt P04035)
T1 sequence (P04035 426-888 limits assumed): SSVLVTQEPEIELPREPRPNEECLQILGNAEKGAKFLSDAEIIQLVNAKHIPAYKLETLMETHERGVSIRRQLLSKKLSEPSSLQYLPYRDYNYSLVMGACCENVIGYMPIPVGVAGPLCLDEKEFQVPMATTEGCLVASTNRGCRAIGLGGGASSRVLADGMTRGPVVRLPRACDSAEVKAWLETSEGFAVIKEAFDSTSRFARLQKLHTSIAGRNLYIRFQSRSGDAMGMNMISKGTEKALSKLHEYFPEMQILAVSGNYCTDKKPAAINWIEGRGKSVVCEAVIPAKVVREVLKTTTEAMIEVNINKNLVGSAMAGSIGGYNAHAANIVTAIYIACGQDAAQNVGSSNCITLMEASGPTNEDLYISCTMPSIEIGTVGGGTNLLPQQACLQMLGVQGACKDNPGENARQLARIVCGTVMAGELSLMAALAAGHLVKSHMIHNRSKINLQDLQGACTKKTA
Conditions: FIG. 17; S565 hydrogen bond

| SMILES | binding sites when binding to HMG-CoA |
| --- | --- |
| CC(C)c1c(C(=O)Nc2ccccc2)c(-c2ccccc2)c(-c2ccc(F)cc2)n1CC[C@@H](O)C[C@@H](O)CC(=O)O [atorvastatin] | many binding sites (S565) |
| CC(C)c1nc(N(C)S(C)(=O)=O)nc(-c2ccc(F)cc2)c1/C=C/[C@@H](O)C[C@@H](O)CC(=O)O [rosuvastatin] | many binding sites (S565) |
